Experimental data reported in publication PMC11928584, “H105A peptide eye drops promote photoreceptor survival in murine and human models of retinal degeneration” (Communications Medicine, 2025).
Values joined by “and” are separate entries in the source; they are usually repeats but may differ in a detail not shown here. Equal entries are not always repeated. Where a SMILES comes first, the peptide text is derived from it.

Key:
[1] = test system: retinal function of rd10 mice; experiment: Electroretinogram (scotopic a- and b-wave), rd10 mice; format: in vivo, mouse
Method: Electroretinogram (ERG) for rd10 and rd10/Serpinf1^-/- mice were dark-adapted overnight and recorded in both eyes of each animal using an Espion E2 system with ColorDome (Diagnosys LLC) with a heated surface. Briefly, pupils were dilated with 1% tropicamide (Akorn, NDC: 17478-101-12) for 10 min and mice were anesthetized with intraperitoneal injection of Zetamine™ (Ketamine hydrochloride injection, USP; VetOne, NDC 13985-584-10) at 92.5 mg/kg, and AnaSed® (xylazine injection, Akorn Pharmaceuticals, NDC 59399-110-20) at 5.5 mg/kg. Mice were placed on the heated surface and electrodes were placed in the mouth and a subdermal platinum needle electrode was placed in the back of the mouse to serve as ground. Responses were elicited with increasing light impulses with intensity from 0.0001 to 10 cd-seconds per meter squared (cd.s/m^2). Amplitudes for a-wave were measured from stimulus to the trough of the a-wave and b-wave amplitudes were measured from a-wave to b-wave trough or peak. The values from the a and b waves for both eyes were exported to Microsoft Excel to obtained amplitude values for each mouse.
Fig. 5 Effect of daily eyedrops of PEDF peptides on ERG a-wave and b-wave retinal function. a Illustration of the experimental timeline of peptide application. RE and LE refer to the right and left eyes, respectively. Representative ERG waveforms for rd10 (b) and rd10/Serpinf1^-/- (c) mice at P21 in response to a light flash (1 cd.s/m²). Amplitude (y-axis) is plotted against time in milliseconds (ms, x-axis). Treatments are indicated to the right of each plot and are color coded, with control wild type C57BL/6 J mice without peptide treatment shown in blue. A-wave and b-wave are indicated by arrows. Photoreceptor a-wave amplitudes. Averages of photoreceptor a-wave amplitudes for rd10 (d) and rd10/Serpinf1^-/- (e) mice as a function of light intensity (cd/s.m², x-axis). Responses of animals treated with 17-mer are shown in green, H105A in black, and vehicle (HBSS) in red. Wildtype responses are shown in blue. Bipolar cell b-wave amplitudes. Averages of bipolar cell b-wave amplitudes for rd10 (f) and rd10/Serpinf1^-/- (g) mice as a function of light intensity (cd/s.m², x-axis), with treatments as indicated in panels. The number of mice evaluated for the data shown in Panels d-g was five (n = 5) for each rd10, rd10/Serpinf1^-/- and wild type. Each data point represents the average ± SD of each genotype, analyzed by ANOVA with Dunnett’s multiple comparisons. Statistical significance between H105A and vehicle is indicated by ##p ≤ 0.01, ###p ≤ 0.001, ####p ≤ 0.0001, and between H105A and 17-mer by **p ≤ 0.01, ***p ≤ 0.001, ****p ≤ 0.0001.

[2] = test system: human iPSC-derived retinal organoids exposed to CSE; experiment: TUNEL staining of retinal organoid sections; format: cell-based; details: Figure 8f; CSE + peptide; individual values, n=5
Method: Human iPSCs were differentiated into retinal organoids (ROs) following the protocol by Zhong et al.[41]. Briefly, on Day 0, hiPSC colonies were dissociated with dispase and grown in a suspension to form embryoid bodies, and slowly transitioned to neural induction media (DMEM/F12 (1:1), 1% N2 supplement (Invitrogen), 1 x minimum essential media-nonessential amino acids (NEAAs), 2 µg/ml heparin (Sigma)). On Day 7, EBs were seeded on Matrigel coated plates and maintained in neural induction media. On Day 16, the media was switched to the retinal differentiation medium (DMEM/F12 (3:1), 2% B27 (without vitamin A, Invitrogen), 1x NEAA and 1% antibiotic–antimycotic (Gibco)). Retinal domains were identified and lifted manually with tungsten needles between Day 21 and Day 26 under a phase contrast microscope. On day 30, the culture medium was transitioned to DMEM/F12 (3:1) with 2% B27, 1x NEAA, 1% antibiotic–antimycotic, 10% fetal bovine serum (FBS; Gibco), […] Taurine (Sigma), and 2 mM GlutaMAX (Invitrogen). Additionally, 1 µM retinoic acid supplement was introduced daily starting from day 63. On day 91, the medium was modified to DMEM/F12 (1:1) supplemented with 1% N2, 1 x NEAAs, 1% antibiotic–antimycotic, 10% FBS, […] Taurine and 2 mM GlutaMAX, and the concentration of retinoic acid supplementation was reduced to 0.5 µM for the remainder of the culture period. The use of hiPSCs in this study conforms to the University of Colorado Institutional Biosafety Committee standards. […]
D180 ROs were treated with each of the 5 experimental conditions, as described above (n = 5 for each condition), washed with PBS three times, and fixed with 4% paraformaldehyde for 10 min at room temperature. […] Fluorescence images were acquired with a Nikon C2 Confocal Microscope A1 (Minato City, Tokyo, Japan) and stitched together using Nikon Elements Software. Images were analysed with Fiji. The relative area of positive immunostaining was calculated as a percentage of total retinal area. […]

[3] = eye drops every other day P15-P23, ERG at P25

CC[C@H](C)[C@H](NC(=O)[C@H](CC(C)C)NC(=O)[C@H](CC(=O)O)NC(=O)[C@H](Cc1ccc(O)cc1)NC(=O)[C@H](Cc1ccc(O)cc1)NC(=O)[C@H](CC(C)C)NC(=O)[C@H](C)NC(=O)[C@H](CCCNC(=N)N)NC(=O)[C@H](C)NC(=O)[C@@H](NC(=O)[C@@H](NC(=O)[C@H](CO)NC(=O)[C@H](CCC(=O)O)NC(=O)[C@@H](NC(=O)[C@H](CCCNC(=N)N)NC(=O)[C@@H](N)CCC(N)=O)[C@@H](C)O)[C@@H](C)CC)[C@@H](C)CC)C(=O)N[C@@H](CO)C(=O)O [H105A] (H-QRTESIIARALYYDLIS-OH)
ERG response to low intensity light ([1]; daily eye drops 5 µl of 1 mg/ml P15-P24, ERG at P25): improved rod photoreceptor function | ERG a-wave [1, 3]: an improvement in a-wave of ERG | ERG b-wave [1, 3]: no significant effect | function of rd10 photoreceptors ([1]; eye drops every other day, endpoint extended to P25): improved the function of rd10 photoreceptors

CC[C@H](C)[C@H](NC(=O)[C@H](CC(C)C)NC(=O)[C@H](CC(=O)O)NC(=O)[C@H](Cc1ccc(O)cc1)NC(=O)[C@H](Cc1ccc(O)cc1)NC(=O)[C@H](CC(C)C)NC(=O)[C@H](C)NC(=O)[C@H](CCCNC(=N)N)NC(=O)[C@H](Cc1c[nH]cn1)NC(=O)[C@@H](NC(=O)[C@@H](NC(=O)[C@H](CO)NC(=O)[C@H](CCC(=O)O)NC(=O)[C@@H](NC(=O)[C@H](C)NC(=O)[C@@H](N)CCC(N)=O)[C@@H](C)O)[C@@H](C)CC)[C@@H](C)CC)C(=O)N[C@@H](CO)C(=O)O [R99A] (H-QATESIIHRALYYDLIS-OH)
Relative TUNEL(+) area [2]: 4.87 and 4.90 and 3.81 and 6.35 and 6.42
